ChEMBL document CHEMBL4342403, “New evolutions in the BACE1 inhibitor field from 2014 to 2018” (Bioorg Med Chem Lett, 2019)

Key:
Beta-secretase 1 [1] = molecular target: T1, Beta-secretase 1 (Homo sapiens, UniProt P56817); assay: Inhibition of BACE1 in human SK-N-BE(2) cells expressing human APP695 assessed as reduction in amyloidbeta level incubated for 18 hrs by sandwich ELISA; format: cell-based
Beta-secretase 1 [2] = molecular target: T1, Beta-secretase 1; assay: Inhibition of BACE1 (unknown origin) by cell-based assay
Beta-secretase 1 [3] = molecular target: T1, Beta-secretase 1; assay: Inhibition of BACE1 (unknown origin)
Beta-secretase 1 [4] = molecular target: T1, Beta-secretase 1; assay: Inhibition of human BACE1 expressed in Escherichia coli preincubated for 1 hr followed by Mca-Ser-Glu-Val-Asn-Leu-Asp-Ala-Glu-Phe-Lys(Dnp)-OH substrate addition by spectroflurimetric assay
[5] = Dissociation constant, pKa of the compound; format: physicochemical
Beta-secretase 1 [6] = molecular target: T1, Beta-secretase 1; assay: Inhibition of human BACE1 catalytic domain preincubated for 30 mins followed by QSY7-EISEVNLDAEFC-Europium-amide substrate addition and measured after […] by HTRF assay
Beta-secretase 2 [7] = molecular target: T2, Beta-secretase 2 (Homo sapiens, UniProt Q9Y5Z0); assay: Inhibition of human BACE2 preincubated for 30 mins followed by QSY7- EISEVNLDAEFC-Eu-amide substrate addition and measured after […] by HTRF assay
T2 sequence (Q9Y5Z0 whole entry): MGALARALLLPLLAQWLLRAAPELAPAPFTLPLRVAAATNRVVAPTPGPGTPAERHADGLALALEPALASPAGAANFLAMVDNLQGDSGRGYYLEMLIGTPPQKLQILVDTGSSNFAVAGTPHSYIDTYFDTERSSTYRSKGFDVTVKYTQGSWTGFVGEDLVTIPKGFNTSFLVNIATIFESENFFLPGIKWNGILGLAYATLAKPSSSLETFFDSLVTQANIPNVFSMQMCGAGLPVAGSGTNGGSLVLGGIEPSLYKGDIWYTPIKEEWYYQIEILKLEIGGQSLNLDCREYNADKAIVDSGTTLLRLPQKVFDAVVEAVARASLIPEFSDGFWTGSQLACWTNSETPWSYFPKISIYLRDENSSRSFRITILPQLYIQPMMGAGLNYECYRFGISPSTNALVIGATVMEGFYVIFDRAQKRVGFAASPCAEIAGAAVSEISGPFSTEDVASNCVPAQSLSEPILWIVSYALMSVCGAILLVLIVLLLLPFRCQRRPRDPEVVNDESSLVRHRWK

Beta-secretase 1 [8] = molecular target: T1, Beta-secretase 1; assay: Inhibition of BACE1 in human SH-SY5Y cells expressing betaAPP assessed as reduction in amyloidbeta (1 to 40 residues) level incubated for 24 hrs by HTRF assay; format: cell-based
Beta-secretase 1 [9] = molecular target: T1, Beta-secretase 1; assay: Inhibition of BACE1 in HEK293 cells harboring APP assessed as reduction in amyloidbeta 40 level incubated for 18 to 20 hrs by AlphaLISA Assay; format: cell-based
Rattus norvegicus [10] = assay: In vivo inhibition of BACE1 in Sprague Dawley rat assessed as reduction in amyloidbeta 40 level in brain at 10 mg/kg, po measured at 3 hrs post dose by ELISA relative to control; format: functional
Rattus norvegicus [11] = assay: In vivo inhibition of BACE1 in Sprague Dawley rat assessed as reduction in amyloidbeta 40 level in brain at 30 mg/kg, po measured at 3 hrs post dose by ELISA relative to control; format: functional
P-glycoprotein (ABCB1) = P-glycoprotein (ABCB1) (Homo sapiens, UniProt P08183); assay: Substrate activity at p-glycoprotein (unknown origin) assessed as efflux ratio; conditions: not told
Sequence of P-glycoprotein (ABCB1) (P08183 whole entry): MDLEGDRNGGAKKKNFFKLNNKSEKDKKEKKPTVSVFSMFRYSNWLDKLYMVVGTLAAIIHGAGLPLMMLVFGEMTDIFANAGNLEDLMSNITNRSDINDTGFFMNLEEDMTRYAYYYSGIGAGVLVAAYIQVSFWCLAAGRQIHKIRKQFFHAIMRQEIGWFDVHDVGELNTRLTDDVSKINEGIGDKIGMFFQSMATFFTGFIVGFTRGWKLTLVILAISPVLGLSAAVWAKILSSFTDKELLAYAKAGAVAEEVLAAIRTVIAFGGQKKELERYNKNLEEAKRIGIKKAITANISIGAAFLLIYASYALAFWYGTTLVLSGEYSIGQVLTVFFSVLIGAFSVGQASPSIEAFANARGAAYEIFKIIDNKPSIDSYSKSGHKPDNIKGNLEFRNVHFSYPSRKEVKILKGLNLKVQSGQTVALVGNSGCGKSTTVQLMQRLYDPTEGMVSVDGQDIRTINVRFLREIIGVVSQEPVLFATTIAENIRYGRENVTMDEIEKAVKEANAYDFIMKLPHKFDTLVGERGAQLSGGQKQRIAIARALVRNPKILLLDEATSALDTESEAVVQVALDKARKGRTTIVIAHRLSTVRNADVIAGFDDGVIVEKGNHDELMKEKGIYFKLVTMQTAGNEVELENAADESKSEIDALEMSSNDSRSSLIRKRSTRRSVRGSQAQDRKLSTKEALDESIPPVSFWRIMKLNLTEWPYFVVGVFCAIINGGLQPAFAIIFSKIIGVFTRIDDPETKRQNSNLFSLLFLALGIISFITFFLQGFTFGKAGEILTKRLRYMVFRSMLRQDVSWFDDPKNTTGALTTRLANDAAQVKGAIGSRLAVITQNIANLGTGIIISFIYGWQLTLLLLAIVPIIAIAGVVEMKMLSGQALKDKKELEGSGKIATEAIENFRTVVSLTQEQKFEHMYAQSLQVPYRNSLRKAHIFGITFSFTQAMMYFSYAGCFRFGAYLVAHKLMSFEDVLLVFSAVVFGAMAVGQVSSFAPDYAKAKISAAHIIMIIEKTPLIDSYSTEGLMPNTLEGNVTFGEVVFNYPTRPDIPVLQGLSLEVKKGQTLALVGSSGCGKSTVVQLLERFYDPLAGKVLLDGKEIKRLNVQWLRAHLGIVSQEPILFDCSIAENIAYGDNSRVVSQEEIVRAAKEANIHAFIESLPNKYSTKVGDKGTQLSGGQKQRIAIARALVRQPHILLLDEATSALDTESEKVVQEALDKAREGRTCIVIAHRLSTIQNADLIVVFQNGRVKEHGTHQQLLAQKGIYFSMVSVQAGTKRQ

Beta-secretase 2 [12] = molecular target: T2, Beta-secretase 2; assay: Inhibition of BACE2 (unknown origin)
Beta-secretase 1 [13] = molecular target: Beta-secretase 1 (Rattus norvegicus, UniProt P56819); assay: Inhibition of BACE1 in Wistar rat neuronal cell suspension after 1 to 3 days by ELISA
Sequence of Beta-secretase 1 (Rattus norvegicus, UniProt P56819) (P56819 whole entry): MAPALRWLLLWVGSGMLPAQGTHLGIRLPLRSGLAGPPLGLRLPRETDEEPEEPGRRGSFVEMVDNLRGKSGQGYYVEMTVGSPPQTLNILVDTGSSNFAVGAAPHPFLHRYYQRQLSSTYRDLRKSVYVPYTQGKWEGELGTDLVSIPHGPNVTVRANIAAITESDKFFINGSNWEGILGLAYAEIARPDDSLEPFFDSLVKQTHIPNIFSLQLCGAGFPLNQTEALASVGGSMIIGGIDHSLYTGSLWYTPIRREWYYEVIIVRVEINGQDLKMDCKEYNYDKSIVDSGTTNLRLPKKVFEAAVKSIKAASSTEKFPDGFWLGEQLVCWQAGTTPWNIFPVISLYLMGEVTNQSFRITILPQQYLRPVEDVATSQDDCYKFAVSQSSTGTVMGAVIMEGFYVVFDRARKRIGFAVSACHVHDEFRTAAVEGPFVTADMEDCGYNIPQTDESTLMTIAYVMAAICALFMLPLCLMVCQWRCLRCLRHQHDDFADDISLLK

Beta-secretase 1 [14] = molecular target: T1, Beta-secretase 1; assay: Inhibition of C-terminal His6-tagged human BACE1 expressed in mammalian expression system preincubated for 1 hr followed by substrate addition and measured after 1 hr by FRET assay
Beta-secretase 2 [15] = molecular target: T2, Beta-secretase 2; assay: Inhibition of C-terminal His6-tagged human BACE2 expressed in mammalian expression system preincubated for 1 hr followed by substrate addition and measured after 1 hr by FRET assay
Beta-secretase 1 [16] = molecular target: T1, Beta-secretase 1; assay: Inhibition of BACE1 (unknown origin) assessed as reduction in amyloidbeta 40 level after 24 hrs by cell-based sandwich ELISA
Beta-secretase 1 [17] = molecular target: T1, Beta-secretase 1; assay: Inhibition of human BACE1 (1 to 460 residues) expressed in HEK293 cells after 16 to 24 hrs by FRET assay; format: cell-based
Mus musculus = assay: In vivo inhibition of BACE1 in C57B1/6J mouse assessed as reduction in amyloidbeta 40 level in brain at 30 mg/kg, po measured at 4 hrs post dose by ELISA relative to control; format: functional
Beta-secretase 1 [18] = molecular target: T1, Beta-secretase 1; assay: Inhibition of human BACE1 using Biotin-XSEVNLDAEFRHDSGC as substrate incubated for 2 hrs by fluorescence method

T1 sequence (P56817 whole entry): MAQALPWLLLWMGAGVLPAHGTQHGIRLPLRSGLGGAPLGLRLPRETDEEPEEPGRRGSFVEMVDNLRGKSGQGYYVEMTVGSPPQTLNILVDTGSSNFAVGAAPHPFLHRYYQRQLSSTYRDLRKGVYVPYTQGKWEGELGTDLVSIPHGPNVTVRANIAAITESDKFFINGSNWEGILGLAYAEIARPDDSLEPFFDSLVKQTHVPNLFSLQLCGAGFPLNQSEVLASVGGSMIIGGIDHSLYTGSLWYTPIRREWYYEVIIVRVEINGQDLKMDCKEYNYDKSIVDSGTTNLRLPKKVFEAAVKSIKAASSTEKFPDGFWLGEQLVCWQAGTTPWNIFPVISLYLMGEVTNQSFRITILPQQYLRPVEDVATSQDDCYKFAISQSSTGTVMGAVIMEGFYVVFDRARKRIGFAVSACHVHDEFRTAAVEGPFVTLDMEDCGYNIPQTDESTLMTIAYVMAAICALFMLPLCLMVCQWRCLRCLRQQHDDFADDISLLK

Structure (SMILES): COc1ncc(CC2CCOCC2)c2c1C[C@]1(c3ccc(F)cc3F)N=C(N)SC[C@@H]1C2
- IC50 (Beta-secretase 1 [1]): 0.76 nM

Structure (SMILES): Cn1cc2n(c1=O)C[C@@](C)(c1cc(NC(=O)c3ccc(C#N)cn3)ccc1F)N=C2N
- IC50 (Beta-secretase 1 [2]): 13.2 nM
- IC50 (Beta-secretase 1 [3]): 3.9 nM

Structure (SMILES): C[C@@]1(c2cc(NC(=O)c3ccc(C#N)cn3)ccc2F)CCC(N)=N1
- IC50 (Beta-secretase 1 [4]): 1050 nM
- pKa [5]: 11.1

Structure (SMILES): CN1C(=N)N[C@]2(C)c3cc(NC(=O)c4ccc(C#N)cn4)ccc3OCC[C@H]2S1(=O)=O (relative stereo)
- Ki (Beta-secretase 1 [6]): 1 nM
- Ki (Beta-secretase 2 [7]): 14 nM

Structure (SMILES): C[C@]1(c2cc(NC(=O)c3ccc(C#N)cn3)ccc2F)N=C(N)OCC12CC(F)(F)C2
- IC50 (Beta-secretase 1 [8]): 0.615 nM

Structure (SMILES): C[C@@]1(c2cc(-c3cc(-c4cnc(C#N)cn4)no3)ccc2F)C[C@@H](C(F)(F)F)OC(N)=N1
- IC50 (Beta-secretase 1 [9]): 30 nM

Structure (SMILES): CN1C[C@@H](c2cc(NC(=O)c3ccc(C#N)cn3)ccc2F)N=C(N)C(C)(C)S1(=O)=O
- Ki (Beta-secretase 1 [6]): 22 nM
- Ki (Beta-secretase 2 [7]): 32 nM

Structure (SMILES): COc1ccc(C(=O)Nc2ccc(F)c([C@]34COC[C@@]3(F)C[C@](C)(F)C(N)=N4)c2)nc1
- inhibition in vivo at 10 mg/kg (Rattus norvegicus [10]): 48%
- inhibition in vivo at 30 mg/kg (Rattus norvegicus [11]): 64%

Structure (SMILES): NC1=N[C@@]2(c3cc(CNCC(F)(F)F)c(F)cc3F)CO[C@@H](CF)C[C@H]2CS1
- pKa [5]: 7.9

Structure (SMILES): CN1C(N)=N[C@](C)(c2cc(NC(=S)c3ccc(C#N)cn3)ccc2F)CS1(=O)=O
- Ki (Beta-secretase 1 [6]): 9.1 nM
- Ki (Beta-secretase 2 [7]): 1 nM

Structure (SMILES): CN1C(=N)N[C@]2(C)c3cc(NC(=O)c4ccc(C#N)cn4)ccc3OCC[C@@H]2S1(=O)=O (relative stereo)
- Ki (Beta-secretase 1 [6]): 47 nM
- Ki (Beta-secretase 2 [7]): 303 nM

Structure (SMILES): C[C@]1(c2cc(NC(=O)c3ccc(C#N)cn3)ccc2F)N=C(N)O[C@H]2[C@@H]1OCC2(F)F
- IC50 (Beta-secretase 1 [8]): 0.391 nM

Structure (SMILES): CC(F)(F)[C@@H]1C[C@@](C)(c2cc(NC(=O)c3ccc(OCF)cn3)ccc2F)N=C(N)S1
- efflux ratio (P-glycoprotein (ABCB1)): 1.6
- IC50 (Beta-secretase 2 [12]): 0.5 nM
- IC50 (Beta-secretase 1 [3]): 6.13 nM

Structure (SMILES): COc1cnc(C(=O)Nc2ccc(F)c([C@]34CO[C@H](C(F)(F)F)[C@H]3CSC(N)=N4)c2)cn1
- IC50 (Beta-secretase 1 [13]): 8 nM

Structure (SMILES): C[C@@]1(c2nc(NC(=O)c3ccc(C#N)cn3)ccc2F)C[C@@H](C(F)(F)F)OC(N)=N1
- IC50 (Beta-secretase 1 [9]): 3.4 nM

Structure (SMILES): C[C@@]1(c2cc(NC(=O)c3cnc(OCF)cn3)ccc2F)C[C@@H](C(F)F)SC(N)=N1
- efflux ratio (P-glycoprotein (ABCB1)): 1.1
- IC50 (Beta-secretase 2 [12]): 0.19 nM
- IC50 (Beta-secretase 1 [3]): 6.23 nM

Structure (SMILES): NC1=N[C@](CF)(c2cc(NC(=O)c3cnc(Cl)cn3)cc(F)c2F)[C@H]2[C@@H](S1)C2(F)F
- IC50 (Beta-secretase 1 [14]): 15.2 nM
- IC50 (Beta-secretase 2 [15]): 3.02 nM
- IC50 (Beta-secretase 1 [16]): 11.2 nM

Structure (SMILES): CC1(c2cc(NC(=O)c3ccc(C#N)cn3)ccc2F)Cc2ncc(F)cc2C(N)=N1 (centres undefined)
- IC50 (Beta-secretase 1 [8]): 2 nM

Structure (SMILES): COc1cnc(C(=O)Nc2ccnc([C@]34CN(c5ncc(F)cn5)C[C@H]3CSC(N)=N4)c2)cn1
- IC50 (Beta-secretase 1 [17]): 0.9 nM

Structure (SMILES): CN=S1(=O)C[C@@](C)(c2cc(NC(=O)c3ccc(Cl)cn3)ccc2F)N=C(N)N1C (single isomer, unassigned)
- Ki (Beta-secretase 1 [6]): 5 nM
- Ki (Beta-secretase 2 [7]): 1 nM

Structure (SMILES): Cc1cc(C#N)cnc1C(=O)Nc1ccc(F)c([C@]2(C)CS3(=O)=NCCCCC3(C)C(N)=N2)c1 (some centres undefined)
- inhibition in vivo at 30 mg/kg (Mus musculus): 52%
- IC50 (Beta-secretase 1 [9]): 0.2 nM

Structure (SMILES): NC1=N[C@@]2(COc3ccc(NC(=O)c4cnc(OCC(F)(F)F)cn4)cc32)[C@H](C(F)(F)F)C1
- IC50 (Beta-secretase 1 [4]): 7080 nM

Structure (SMILES): C[C@H]1SC(N)=N[C@](C)(c2cc(NC(=O)c3cnc(F)cn3)ccc2F)C12CC(F)(F)C2
- IC50 (Beta-secretase 1 [8]): 5.4 nM
- IC50 (Beta-secretase 1 [18]): 11.9 nM
